# Data as given in US20250090551A1, “BUDESONIDE 21-PHOSPHATE SODIUM SALT FOR USE AS ANTI-INFLAMMATORY OR ANTIASTHMATIC AGENT” (GENETIC S.P.A., priority 2021, published 2025).
# Tests used:
# [1] = test system: BK- and C48/80-induced plasma extravasation in dorsal skin of C57Bl/6 mice; experiment: Skin edema (plasma extravasation, Evans blue method) induced by BK or C48/80; type: in vivo; details: for BK-induced plasma extravasation / reduction of C48/80-induced plasma extravasation: 2.32 μmol/kg i.p. (1.0 mg/kg Bud, 1.3 mg/kg Bud-21 P—Na2) 60 min before i.d. injection, 30 min
# Experimental: In Protocol 3, Bud (at doses of 1.0 and 0.30 mg/kg) and Bud 21-P Na2 (at doses of 1.3 and 0.39 mg/kg) were administered on a molar base, these doses were equivalent to […] μmol/kg of each compound, respectively. The vehicle for dissolution of the compounds was sterile saline solution (0.9% NaCl) containing 12.5% DMSO (Sigma Chemical Co., St. Louis, MO). The compound solutions were prepared at concentrations such that the administered dose per kg of body weight results from the intraperitoneal (i.p.) administration of 10 ml/kg of each of the solutions.
# Skin edema was assessed in mice according to the method previously described by Costa et al. (2006), Vasc. Pharmacol; 45: 209-214 and Yshii et al (2009), Toxicon; 53: 42-52. The mice were anesthetized with urethane (25% w/v, 10 ml/kg, i.p.), had their dorsal skin shaved, and thereafter i.p. treated with the vehicle/test compounds. Fifty-five minutes later, a volume of 100 μL of Evans blue dye solution (0.25% in sterile saline) was intravenously (i.v.) injected via the tail vein. Five minutes later, the BK and C48/80 were intradermally (i.d.) injected into the dorsal skin at a fixed volume of 50 μl using a randomized scheme. The same volume of Tyrode solution 50 μl was injected as a control. Thirty minutes later, a 1 ml blood sample was obtained via cardiac puncture and the mice were killed by urethane overdose followed by cervical dislocation. The blood samples were centrifuged at 6,000 g for 4 min to obtain the plasma. The dorsal skin was removed, and the injected sites were punched out using an 8 mm diameter cork borer. A non-injected skin site distant from the injection sites was also punched and taken as a blank. The dye was extracted from each piece of skin and plasma (100 μl) samples using formamide, and the absorbance of the resulting solutions was measured at 620 nm. The plasma extravasation due to each agent (expressed in μl/site) was calculated as the ratio between the absorbance of each respective skin piece, corrected by the blank value and plasma sample solutions, properly adjusted by the dilution factors [Vasc. Pharmacol (2006); 45: 209-214]. To homogenate data due to the variability of different group of animals (inter-group variations), edema data are expressed as the fold-change response relative to the mean Tyrode (control) response of each experiment.
# [2] = at physiological pH in the intestinal region; cited from earlier work
# [3] = cited from earlier work
# [4] = test system: methacholine-induced bronchoconstriction in OVA-induced allergic Balb/c mice; experiment: Lung hyperreactivity / Penh function in OVA-induced allergic asthma; type: in vivo; details: 3, 10 and 30 nmol/animal/day i.n., 4 weeks; vs untreated OVA group
# Experimental: (§1) In Protocol 2, the test compounds Bud (MW: 430.53 g/mol) and Bud-21 P Na2 (MW: 554.48 g/mol) were administered at equimolar doses of 3, 10 and 30 nmol/animal/day, equivalent to 1.3, 4.3 and 12.9 μg/animal/day of Bud, 1.7, 5.5 and […] of Bud-21 P Na2, respectively. The compounds were dissolved in 10% sterile saline+90% DMSO (Sigma Chemical Co., St. Louis, MO) at the correspondent concentrations at which the above-mentioned doses per animal result from the intra-nasal (i.n.) administration of 10 μl/animal (5 μl/nostril) of each of the solutions.
# Chicken egg-white ovalbumin (OVA; grade V, cat. A5503, Sigma Chemical Co., St. Louis, MO) was dissolved in sterile phosphate buffered saline (PBS) solution (250 μg/ml) and Al(OH)3 was added (at 13 mg/ml). This mix was used to induce the allergic sensitization of the animals by subcutaneous injection. OVA was dissolved at 1% in sterile PBS solution and this solution was nebulized (as the immunological challenges).
# (§2) Mice were sensitized with two subcutaneous injections of 0.2 ml of OVA/Al(OH)3, with an interval of 7 days (Sham animals received the Al(OH)3 suspension in PBS with no OVA). Seven days after the second sensitization (i.e., 3rd week), the animals were nebulized twice a week with the 1% OVA solution (Sham and untreated OVA groups were nebulized with PBS) during 20 minutes for the next 2 weeks.
# Three hours after the challenges (OVA nebulization) and daily during the next 4 weeks (following the first OVA challenge), mice were intra-nasally treated (10 μl/animal as 5 μl/nostril) with the respective compounds/vehicle, and the last dose was administered 30 min before the Penh measurement at the end of the 6th week.
# Airway responsiveness in conscious, spontaneously breathing animals was measured at the end of the 6th week (i.e., after 4-week OVA challenges+treatments), 24 h after the last OVA/PBS challenge via whole body plethysmography (Buxco Europe Ltd, Winchester, UK), as previously described (Santos et al., 2014). Experiments were carried out in a quiet room by an investigator who was unaware of the nature of treatments.
# Aerosolized saline (50 μl/mouse during 60 s) and then the muscarinic agonist methacholine (MCh) at increasing concentrations (3.12, 6.25, 12.5 and 25.0 mg/ml in PBS) was nebulized through an inlet of the main chamber for 3 min each to induce bronchoconstriction and readings were taken and averaged for 6 min following each nebulization. After 20 min, the baseline values usually returned at the end of this period. Enhanced pause (Penh) was measured as an indicator of bronchoconstriction and consequent increase of airway resistance as: Penh=[(expiration time/relaxation time)−1]/(maximum expiration flow/maximum inspiration flow).
# [5] = test system: carrageenan-induced paw edema in CD-1 mice; experiment: Carrageenan-induced paw edema; type: in vivo; details: first phase; for time after carrageenan at which the significant inhibition level is reached (onset of effect): dose of 0.3 mg/kg, i.p.; for dose relation of anti-inflammatory effect / maximum inhibition of edema: doses 0.1, 0.3, 1 mg/kg i.p.; for maximum inhibition of edema: Bud-21 P—Na2 maximum with either 0.3 or 1 mg/kg
# Experimental: In Protocol 1 (paw edema), the test compounds budesonide (Bud) and budesonide 21-phosphate sodium salt (Bud 21-P Na2) have been tested. Both compounds were administered in a volume of 100 μl intraperitoneally 1 hour before the induction of the inflammatory reaction. Doses of 0.1, 0.3 e 1 mg/kg were tested.
# Carrageenan edema in the paw of the CD-1 mice involves the sub-plantar administration of 50 μl of 1% carrageenan and the measurement of the increase in the volume of the paw by using a hydroplethysmometer. This experimental model has a biphasic development (Posadas et al., Br J Pharmacol 2004 May; 142(2):331-338). The first phase, which is acute, is sustained by an increase in permeability accompanied by infiltration of neutrophils, which develops and resolves between 4 and 5 hours. The second phase occurs after 24 hours and is characterized by macrophage infiltration and has the characteristics of sub chronic inflammation, which reaches its maximum after 72 hours and resolves after 5 days. Bud and Bud 21-P Na2 have been tested. Both compounds were administered in a volume of 100 μl intraperitoneally 1 hour before the induction of the inflammatory reaction. Doses of 0.1, 0.3 e 1 mg/kg were tested.
# [6] = test system: leukocyte recruitment to the bronchoalveolar space in OVA-induced allergic Balb/c mice; experiment: BAL fluid total and differential leukocyte counts in OVA-induced allergic asthma; type: in vivo; details: 4 weeks, vs Sham
# Experimental: as §1
# as §2, with “[…]. […]” for “weeks.”
# After Penh evaluation, the mice were anesthetized with inhaled isofluorane (5% v/v in O2) and blood samples were collected from the descending abdominal aorta. […] Total cell counts were determined using a Neubauer chamber, and differential counting was carried out in cytospin (Fanem Mod 2400; Sao Paulo, Brazil) preparations stained with May-Grünwald dye. […]
# [7] = 0.70 μmol/kg i.p. (0.30 mg/kg Bud, 0.39 mg/kg Bud-21 P—Na2)
Compound,"BK-induced edema [1, 7]","C48/80-induced edema [1, 7]",BK-induced plasma extravasation [1],reduction of C48/80-induced plasma extravasation [1],solubility in water [2] [µg/mL],logP [3],Penh AUC (area under Penh vs methacholine curve) [4],Penh Emax (maximal response) [4],time after carrageenan at which the significant inhibition level is reached (onset of effect) [5] [h],dose relation of anti-inflammatory effect [5],maximum inhibition of edema [5],total BAL leukocytes compared with Sham ([6]; 3 nmol/animal/day i.n.),BAL macrophages compared with Sham ([6]; either 3 or 10 nmol/animal/day i.n.),inhibition of edema formation ([5]; 0.1 mg/kg i.p. 60 min before carrageenan) [%]
"CCCC1OC2CC3C4CCC5=CC(=O)C=CC5(C)C4C(O)CC3(C)C2(C(=O)CO)O1 (stereo not drawn) [Bud, 11β,21-dihydroxy-16α,17α-(butylidenebis(oxy))pregna-1,4-diene-3,20-dione]",ineffective,ineffective,abolished,approximately 50%,28,3.2,significant reduction of this response just at the highest dose,significant reduction of this response just at the highest dose,6,not dose-related,about 50%,still significantly higher than that observed in the Sham mice,still significantly higher than those observed in the Sham group,
Budesonide 21-phosphate sodium salt [Bud-21 P—Na2],,significantly inhibited,abolished,approximately 50%,,,significantly reduced,significantly reduced,2,dose-related anti-inflammatory effect,70%,,,50
